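In this assay, cells in 96-well plates receive the compound at five concentrations for 48 hours. Endpoints are linearly interpolated between the surrounding concentrations. Abbreviation: GI50, concentration required for 50% inhibition of growth.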 The source made the active and inactive calls. No stated cut-off is given here; in the data, active = GI50 up to about 1.1 µM and inactive = higher.
How the values were obtained:
Assay in all cases: DTP human tumour cell line panel, 48 h
HCT-15 = tested on: HCT-15
A549 = tested on: A549
HT-29 = tested on: HT-29
UACC-257 = tested on: UACC-257
MCF7 = tested on: MCF7
SK-OV-3 = tested on: SK-OV-3
SN12C = tested on: SN12C
NCI-H460 = tested on: NCI-H460
Malme-3M = tested on: Malme-3M
MDA-MB-435 = tested on: MDA-MB-435
NCI/ADR-RES = tested on: NCI/ADR-RES
K562 = tested on: K562
EKVX = tested on: EKVX
COLO 205 = tested on: COLO 205
SK-MEL-2 = tested on: SK-MEL-2
NCI-H522 = tested on: NCI-H522
RPMI-8226 = tested on: RPMI-8226
KM-20L2 = tested on: KM-20L2

SMILES | GI50 (HCT-15) | GI50 (A549) | GI50 (HT-29) | GI50 (UACC-257) | GI50 (MCF7) | GI50 (SK-OV-3) | GI50 (SN12C) | GI50 (NCI-H460) | GI50 (Malme-3M) | GI50 (MDA-MB-435) | GI50 (NCI/ADR-RES) | GI50 (K562) | GI50 (EKVX) | GI50 (COLO 205) | GI50 (SK-MEL-2) | GI50 (NCI-H522) | GI50 (RPMI-8226) | GI50 (KM-20L2)
S=C(NCc1ccccc1)c1nc[nH]c1C(=S)NCc1ccccc1 | 3.83 µM | 3.89 µM (inactive) | 6.84 µM (inactive) | 10.1 µM (inactive) | 2.55 µM (inactive) | 12.7 µM (inactive) | 11.7 µM (inactive) | 4.06 µM (inactive) | 11 µM (inactive) | 6.62 µM (inactive) | 3.41 µM (inactive) | 4.4 µM (inactive) | 4.34 µM (inactive) | 3.48 µM (inactive) | 9.08 µM (inactive) | 3.58 µM (inactive) | 5.19 µM (inactive) | 
CN(C)Cc1cc(/N=N/c2ccc(Cl)cc2)ccc1O | 15.1 µM | 16 µM (inactive) | 12.6 µM (inactive) | 18.7 µM (inactive) | 17.4 µM (inactive) | 18.7 µM (inactive) | 16.9 µM (inactive) | 13.8 µM (inactive) | 14 µM (inactive) | 16.7 µM (inactive) | 17.7 µM (inactive) | 17.3 µM (inactive) | 18.3 µM (inactive) | 3.81 µM (inactive) | 21.3 µM (inactive) | 13.5 µM (inactive) | > 10 µM (inactive) | 
Cc1nnc2sc(Cl)nn12 | 19.3 µM | 26.1 µM (inactive) | 16.7 µM (inactive) | > 10 µM (inactive) | 13.3 µM (inactive) | 17.3 µM (inactive) | 32.4 µM (inactive) | 18.5 µM (inactive) | 22.1 µM (inactive) | 7.64 µM (inactive) | 51.5 µM (inactive) | 8.05 µM (inactive) | 24.9 µM (inactive) | 14.5 µM (inactive) | 24.1 µM (inactive) | 10 µM (inactive) | 6.1 µM (inactive) | 
CCOc1cc(NC(C)=O)ccc1C(=O)NNC(=O)c1ccccc1OC(C)=O | 4.37 µM | 6.76 µM (inactive) | 34 µM (inactive) | 4.92 µM (inactive) | 6.07 µM (inactive) | 11.8 µM (inactive) | 5.24 µM (inactive) | 4.04 µM (inactive) | 21.7 µM (inactive) | 15 µM (inactive) | 17.7 µM (inactive) | 3.02 µM (inactive) | 5.18 µM (inactive) | 21.5 µM (inactive) | 24.3 µM (inactive) | 5.83 µM (inactive) | 3 µM (inactive) | 
N#Cc1ncn(CCO)c1N | > 100 µM | > 100 µM (inactive) | > 100 µM (inactive) | > 100 µM (inactive) | > 100 µM (inactive) | > 100 µM (inactive) | > 100 µM (inactive) | > 100 µM (inactive) | > 100 µM (inactive) | > 100 µM (inactive) | > 100 µM (inactive) | > 100 µM (inactive) | > 100 µM (inactive) | > 100 µM (inactive) | > 100 µM (inactive) | > 100 µM (inactive) | > 100 µM (inactive) | 
CCOC(=O)C(C(=O)c1ccccc1-c1ccccc1C(=O)O)=P(c1ccccc1)(c1ccccc1)c1ccccc1 | 25.7 µM | 17.8 µM (inactive) | 25 µM (inactive) | 25.5 µM (inactive) |  |  | 30.5 µM (inactive) | 16.5 µM (inactive) | 22.4 µM (inactive) |  |  | 20 µM (inactive) | 32.9 µM (inactive) | 19.1 µM (inactive) | 20.6 µM (inactive) |  | 13.9 µM (inactive) | 21 µM (inactive)
CC(C)(C)OC(=O)NCCCCC(NC(=O)c1ccccc1)C(N)=O (stereo not drawn) | > 100 µM | > 100 µM (inactive) | > 100 µM (inactive) | > 100 µM (inactive) | > 100 µM (inactive) | 99.1 µM (inactive) | > 100 µM (inactive) | > 100 µM (inactive) | > 100 µM (inactive) | > 100 µM (inactive) | > 100 µM (inactive) | 54.7 µM (inactive) | > 100 µM (inactive) | > 100 µM (inactive) | > 100 µM (inactive) | > 100 µM (inactive) | > 100 µM (inactive) | 
CN(C)c1ccc(/C=c2/c3ccccc3n3nc4ccccc4c23)cc1 | 8.32 µM | 16.3 µM (inactive) | 13.7 µM (inactive) | 56 µM (inactive) | 13.8 µM (inactive) | 13.1 µM (inactive) | 73.6 µM (inactive) | 30.1 µM (inactive) | > 100 µM (inactive) | 3.35 µM (inactive) | 11.1 µM (inactive) | 9.53 µM (inactive) | 44.3 µM (inactive) | 9.64 µM (inactive) | 23.4 µM (inactive) | 5.71 µM (inactive) | 10.7 µM (inactive) | 
Nc1cccc(C2CCCc3c2[nH]c2ccccc32)c1 (stereo not drawn) | 8.28 µM | 17.5 µM (inactive) | 14.6 µM (inactive) | 23.9 µM (inactive) | 21.8 µM (inactive) | 23.9 µM (inactive) | 17 µM (inactive) | 19.5 µM (inactive) | 18.1 µM (inactive) | 17.3 µM (inactive) | 17.7 µM (inactive) | 13.6 µM (inactive) | 18.5 µM (inactive) | 19.8 µM (inactive) | 17.5 µM (inactive) | 15.8 µM (inactive) | 19.1 µM (inactive) | 
Cn1ccnc1Oc1ccc(Cl)cc1 | 11.7 µM | 34.2 µM (inactive) | 13.7 µM (inactive) | 9.75 µM (inactive) | 12 µM (inactive) | 47.4 µM (inactive) | 13.6 µM (inactive) | 30.3 µM (inactive) | 2.28 µM (inactive) | 12.4 µM (inactive) | 16.7 µM (inactive) | 13.7 µM (inactive) | 19.8 µM (inactive) | 13 µM (inactive) | 16.4 µM (inactive) | 2.28 µM (inactive) | 0.49 µM (active) | 
Cc1ccc(C(=O)N/N=C(\N=N\c2cccc(Cl)c2)c2ccc(N(CCC#N)CCC#N)cc2C)cc1 | > 100 µM | > 100 µM (inactive) | 90.2 µM (inactive) | > 100 µM (inactive) | > 100 µM (inactive) | > 100 µM (inactive) | > 100 µM (inactive) | > 100 µM (inactive) | > 100 µM (inactive) | > 100 µM (inactive) | > 100 µM (inactive) | > 100 µM (inactive) | > 100 µM (inactive) | > 100 µM (inactive) | > 100 µM (inactive) | > 100 µM (inactive) | 91.8 µM (inactive) | 
CCOC(=O)c1nnsc1N/N=C\c1ccc([N+](=O)[O-])cc1 | > 100 µM | > 100 µM (inactive) | > 100 µM (inactive) | > 100 µM (inactive) | > 100 µM (inactive) | > 100 µM (inactive) | > 100 µM (inactive) | > 100 µM (inactive) | > 100 µM (inactive) | > 100 µM (inactive) | > 100 µM (inactive) | > 100 µM (inactive) | > 100 µM (inactive) | > 100 µM (inactive) | > 100 µM (inactive) | > 100 µM (inactive) | > 100 µM (inactive) | 
COc1ccccc1/C=N/C12CC3CC(CC(C3)C1)C2 | 91.8 µM | > 100 µM (inactive) | > 100 µM (inactive) | > 100 µM (inactive) |  | > 100 µM (inactive) | > 100 µM (inactive) | > 100 µM (inactive) | > 100 µM (inactive) |  |  | 32.4 µM (inactive) | > 100 µM (inactive) | > 100 µM (inactive) | > 100 µM (inactive) | > 100 µM (inactive) | > 100 µM (inactive) | > 100 µM (inactive)
COc1ccc([S+]([O-])Cc2cc(OC)c(OC)c(OC)c2)cc1 (stereo not drawn) | 30.4 µM | 49.1 µM (inactive) | 31.3 µM (inactive) | > 100 µM (inactive) | 39.5 µM (inactive) | > 100 µM (inactive) | 54.8 µM (inactive) | 33.2 µM (inactive) | 58.3 µM (inactive) | 5.96 µM (inactive) | 40.7 µM (inactive) | 14.7 µM (inactive) | > 100 µM (inactive) | 52.8 µM (inactive) | 38.1 µM (inactive) | 51.3 µM (inactive) | 42.2 µM (inactive) | 
O=C1CC(Nc2ccccc2)c2c(Cl)sc(Cl)c21 (stereo not drawn) | 0.767 µM | 2.05 µM (inactive) | 1.7 µM (inactive) | 1.85 µM (inactive) | 1.47 µM (inactive) | 13.4 µM (inactive) | 1.51 µM (inactive) | 6.37 µM (inactive) | 1.42 µM (inactive) | 1.52 µM (inactive) | 2.42 µM (inactive) | 1.12 µM (active) | 1.76 µM (inactive) | 0.906 µM (active) | 1.89 µM (inactive) | 0.139 µM (active) | < 0.01 µM (active) | 
COC(=O)/C=C\C(C#N)(C#N)/N=C/c1ccccc1 | 2.92 µM | 17.8 µM (inactive) | 4.49 µM (inactive) | 5.36 µM (inactive) | 2.09 µM (inactive) | 18.3 µM (inactive) | 11.1 µM (inactive) | 18.7 µM (inactive) | 2.21 µM (inactive) | 2.33 µM (inactive) | 2.88 µM (inactive) | 3.37 µM (inactive) | 12.8 µM (inactive) | 1.62 µM (inactive) | 16.7 µM (inactive) | 0.471 µM (active) | 0.573 µM (active) | 
COc1cc2cc3c4cc(OC)c(OC)cc4cc[n+]3c(C)c2cc1OC [CORALYNE] | 48.2 µM | > 100 µM (inactive) | 77.4 µM (inactive) | 35.4 µM (inactive) | > 100 µM (inactive) | > 100 µM (inactive) | 5.74 µM (inactive) | 38.9 µM (inactive) | 60.1 µM (inactive) | > 100 µM (inactive) | > 100 µM (inactive) | 91.4 µM (inactive) | 60.7 µM (inactive) | 47.3 µM (inactive) | > 100 µM (inactive) | 40 µM (inactive) | > 100 µM (inactive) | 

— ChEMBL document CHEMBL1201862, “PubChem BioAssay data set” (2004)
